From US10752587B2, “Homobispiperidinyl derivatives as liver X receptor beta agonists, compositions and their use” (Merck Sharp & Dohme Corp., priority 2015, dated 2020) come the findings set out here.

Where two headings read alike, the source gives them in different places.

In assay [1] the target is T1, glutathione-S-transferase (GST) tagged LXRbeta LBD (ligand binding domain) (Homo sapiens, UniProt P55055).
T1 construct: purchased Invitrogen pv4658.pps
T1 sequence (P55055 222-460 limits assumed): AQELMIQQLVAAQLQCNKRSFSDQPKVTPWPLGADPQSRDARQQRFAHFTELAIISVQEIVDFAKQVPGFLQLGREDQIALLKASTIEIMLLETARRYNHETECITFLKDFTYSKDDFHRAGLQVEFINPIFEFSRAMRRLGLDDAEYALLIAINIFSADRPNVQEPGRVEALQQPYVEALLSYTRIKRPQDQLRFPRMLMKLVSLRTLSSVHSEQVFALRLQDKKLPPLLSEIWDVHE
The assay is described as follows: LanthaScreen TR-FRET Liver X Receptor Coactivator Assay, co-activator recruitment to LXRbeta LBD. Format: biochemical. The method, boiled down: (§1)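 TR-FRET coactivator recruitment; compound + LBD, then fluorescein-coactivator peptide/Tb-anti-GST Ab mix; RT incubation; IP and Emax vs T0901317.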

In assay [2] the target is T2, glutathione-S-transferase (GST) tagged LXRalpha LBD (ligand binding domain) (Homo sapiens, UniProt Q13133).
T2 construct: purchased Invitrogen pv4655
T2 sequence (Q13133 209-447 limits assumed): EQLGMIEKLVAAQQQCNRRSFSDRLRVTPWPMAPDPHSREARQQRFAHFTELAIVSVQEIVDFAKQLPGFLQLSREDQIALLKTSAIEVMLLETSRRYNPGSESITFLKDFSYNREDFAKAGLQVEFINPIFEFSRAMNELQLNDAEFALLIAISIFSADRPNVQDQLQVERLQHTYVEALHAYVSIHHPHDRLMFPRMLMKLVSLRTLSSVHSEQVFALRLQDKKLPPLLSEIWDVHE
The assay is described as follows: LanthaScreen TR-FRET Liver X Receptor Coactivator Assay, co-activator recruitment to LXRalpha LBD. Format: biochemical. The method in brief:
as §1
(In TR-FRET formats the signal depends on donor and acceptor labels being close together.)

The mark [3] stands for this setting: efficacy at max dose, in relation to reference dual agonist T0901317, read-out: LXR beta Activity @ max dose (%).
[4] abbreviates: potency (Inflection Point, IP), co-activator recruitment to LXRbeta LBD, in relation to T0901317, read-out: LXR beta IP.
The mark [5] stands for this setting: efficacy at max dose, in relation to reference dual agonist T0901317, read-out: LXR alpha Activity @ max dose (%).
The mark [6] stands for this setting: potency (Inflection Point, IP), co-activator recruitment to LXRalpha LBD, in relation to T0901317, read-out: LXR alpha IP.
Setting [7] is: potency (Inflection Point, IP), co-activator recruitment to LXRalpha LBD, in relation to T0901317.
The mark [8] stands for this setting: efficacy at max dose, in relation to reference dual agonist T0901317.

In the case of `CN(C)C(=O)c1ccc(N2CCC(CC3CCN(C(=O)C(O)(c4cccc(Cl)c4)C(F)(F)F)CC3)CC2)cc1Cl` (centres unmarked) [Example 2-17, 2-chloro-4-[4-({1-[2-(3-chlorophenyl)-3,3,3-trifluoro-2-hydroxy-propanoyl]piperidin-4-yl}methyl)piperidin-1-yl]-N,N-dimethyl-benzamide], the Emax came out at 63% in assay [1] (setting [3]) and 24% in assay [2] (setting [5]). Besides, the EC50 in assay [1] (setting [4]) was determined as 11 nM; in assay [2] (setting [6]), 140 nM.
Regarding `COc1cc(F)cc([C@](O)(C(=O)N2CCC(CC3CCN(c4ccc(C(=O)N(C)C)c(Cl)n4)CC3)CC2)C(F)(F)F)c1` [Example 7-102, 2-chloro-N,N-dimethyl-6-[4-({1-[(2S)-3,3,3-trifluoro-2-(3-fluoro-5-methoxyphenyl)-2-hydroxypropanoyl]piperidin-4-yl}methyl)piperidin-1-yl]pyridine-3-carboxamide], the Emax in assay [1] (setting [3]) was 114%; in assay [2] (setting [5]), 16%. Further, the EC50 in assay [1] (setting [4]) was found to be 78 nM. In addition, in assay [2] (setting [7]), the “LXR alpha IP (nM)” value is given as “NO IP”.
For `COc1cccc([C@@](O)(C(=O)N2CC(CC3CCN(c4ccc(C(=O)N(C)C)c(Cl)c4)CC3)C2)C(F)(F)F)c1` [Example 2-59, 2-chloro-N,N-dimethyl-4-[4-({1-[(2R)-3,3,3-trifluoro-2-hydroxy-2-(3-methoxyphenyl)propanoyl]azetidin-3-yl}methyl)piperidin-1-yl]benzamide], the values for the Emax in assay [1] (setting [3]) and in assay [2] (setting [5]) were 62% and 3%, respectively. The EC50 in assay [1] (setting [4]) was 18 nM. Also, the “LXR alpha IP (nM)” value in assay [2] (setting [7]) was “NO IP”.
Turning to `CN(C)C(=O)c1ccc(N2CCC(CC3CN(C(=O)C(N)(c4ccccc4)C(F)(F)F)C3)CC2)cc1Cl` (centres unmarked) [Example 2-69, 4-(4-{[1-(2-amino-3,3,3-trifluoro-2-phenyl-propanoyl)azetidin-3-yl]methyl}piperidin-1-yl)-2-chloro-N,N-dimethyl-benzamide], the Emax in assay [1] (setting [3]) turned out to be 112%; in assay [2] (setting [5]) it was 16%. For the same molecule, in assay [1] (setting [4]), the EC50 was 1110 nM. For the same molecule, in assay [2] (setting [7]), the “LXR alpha IP (nM)” value was “NO IP”.
On the same counts, the results for `CN(C)C(=O)c1ccc(N2CCC(CC3CCN(C(=O)C4(c5ccccc5)CCC4)CC3)CC2)cc1Cl` [Example 2-18, 2-chloro-N,N-dimethyl-4-[4-({1-[(1-phenylcyclobutyl)carbonyl]piperidin-4-yl}methyl)piperidin-1-yl]benzamide] are 46%, 6%, 151 nM and “NO IP”.
For `CN(C)C(=O)c1ccc(N2CCC(CC3CCN(C(=O)C(O)(c4cccc(C(F)(F)F)c4)C(F)(F)F)CC3)CC2)nc1Cl` (centres unmarked) [Example 7-54, 2-chloro-N,N-dimethyl-6-{4-[(1-{3,3,3-trifluoro-2-hydroxy-2-[3-(trifluoromethyl)phenyl]propanoyl}piperidin-4-yl)methyl]piperidin-1-yl}pyridine-3-carboxamide], the Emax in assay [1] (setting [3]) turned out to be 77%; in assay [2] (setting [5]), 21%. Besides, the EC50 in assay [1] (setting [4]) was found to be 10 nM; in assay [2] (setting [6]), 356 nM.
With `CNC(=O)c1ccc(N2CCC(CC3CCN(C(=O)[C@](O)(c4cccc(C(C)C)c4)C(F)(F)F)CC3)CC2)nc1Cl` [Example 7-149, 2-chloro-N-methyl-6-{4-[(1-{(2R)-3,3,3-trifluoro-2-hydroxy-2-[3-(1-methylethyl)phenyl]propanoyl}piperidin-4-yl)methyl]piperidin-1-yl}pyridine-3-carboxamide], the Emax is 91% in assay [1] (setting [3]) and 32% in assay [2] (setting [5]). The EC50 in assay [1] (setting [4]) was found to be 17 nM; in assay [2] (setting [6]), 163 nM.
For `COc1cccc(C(O)(C(=O)N2CCC(OC3CCN(c4ccc(C(=O)N(C)C)c(Cl)c4)CC3)CC2)C(F)(F)F)c1` (centres unmarked) [Example 2-26, 2-chloro-N,N-dimethyl-4-[4-({1-[3,3,3-trifluoro-2-hydroxy-2-(3-methoxyphenyl)propanoyl]piperidin-4-yl}oxy)piperidin-1-yl]benzamide], the Emax came out at 68% in assay [1] (setting [3]) and 0% in assay [2] (setting [5]). Moreover, the EC50 in assay [1] (setting [4]) worked out at 23 nM. Further, in assay [2] (setting [7]), the “LXR alpha IP (nM)” value is “NO IP”.
In the case of `COc1cc(F)cc([C@@](O)(C(=O)N2CCC(CC3CCN(c4ccc(C(=O)N(C)C)c(Cl)n4)CC3)CC2)C(F)(F)F)c1` [Example 7-101, 2-chloro-N,N-dimethyl-6-[4-({1-[(2R)-3,3,3-trifluoro-2-(3-fluoro-5-methoxyphenyl)-2-hydroxypropanoyl]piperidin-4-yl}methyl)piperidin-1-yl]pyridine-3-carboxamide], the Emax in assay [1] (setting [3]) was determined as 84%; in assay [2] (setting [5]), 22%. Also, the results for the EC50 in assay [1] (setting [4]) and in assay [2] (setting [6]) were 4 nM and 41 nM, respectively.
With `CN(C)C(=O)c1ccc(N2CCC(CC3CCN(C(=O)C(O)(c4ccsc4)C(F)(F)F)CC3)CC2)cc1Cl` (centres unmarked) [Example 2-30, 2-chloro-N,N-dimethyl-4-(4-{[1-(3,3,3-trifluoro-2-hydroxy-2-thiophen-3-ylpropanoyl)piperidin-4-yl]methyl}piperidin-1-yl)benzamide], the Emax in assay [1] (setting [3]) is 64%; in assay [2] (setting [5]) it was 25%. Further, the EC50 in assay [1] (setting [4]) was determined as 36 nM; in assay [2] (setting [6]) it was 821 nM.
`CN(C)C(=O)c1ccc(N2CCC(CC3CCN(C(=O)[C@](O)(c4cccc(OC5CC5)c4)C(F)(F)F)CC3)CC2)nc1Cl` [Example 7-106, 2-chloro-6-{4-[(1-{(2R)-2-[3-(cyclopropyloxy)phenyl]-3,3,3-trifluoro-2-hydroxypropanoyl}piperidin-4-yl)methyl]piperidin-1-yl}-N,N-dimethylpyridine-3-carboxamide]: the Emax in assay [1] (setting [3]) came out at 41%; in assay [2] (setting [5]), 0%. Besides, the EC50 in assay [1] (setting [4]) was 5 nM. Further, the “LXR alpha IP (nM)” value in assay [2] (setting [7]) is reported as “NO IP”.
Take `CCc1cccc([C@@](O)(C(=O)N2CCC(CC3CCN(c4ccc(C(=O)N(C)C)cc4)CC3)CC2)C(F)(F)F)c1` [Example 2-141, 4-[4-({1-[(2R)-2-(3-ethyl-phenyl)-3,3,3-trifluoro-2-hydroxy-propanoyl]piperidin-4-yl}methyl)piperidin-1-yl]-N,N-dimethyl-benzamide]: the figures for the Emax in assay [1] (setting [3]) and in assay [2] (setting [5]) were 51% and 12%, respectively. The EC50 in assay [1] (setting [4]) came out at 74 nM. The “LXR alpha IP (nM)” value in assay [2] (setting [7]) is given as “NO IP”.
On to `CN(C)C(=O)c1ccc(N2CCC(CC3CCN(C(=O)[C@](O)(c4ccccc4)C(F)(F)F)CC3)CC2)cc1Cl` [Example 2-12, 2-chloro-N,N-dimethyl-4-[4-({1-[(2R)-3,3,3-trifluoro-2-hydroxy-2-phenylpropanoyl]piperidin-4-yl}methyl)piperidin-1-yl]benzamide], for which the Emax in assay [1] (setting [3]) was determined as 79%; in assay [2] (setting [5]), 25%.
Take `CN(C)C(=O)c1ccc(N2CCC(CC3CCN(C(=O)[C@](O)(c4ccccc4)C4CCCC4)CC3)CC2)nc1Cl` [Example 7-98, 2-chloro-6-[4-({1-[(2R)-2-cyclopentyl-2-hydroxy-2-phenylacetyl]piperidin-4-yl}methyl)piperidin-1-yl]-N,N-dimethylpyridine-3-carboxamide]: the EC50 in assay [1] (LXR beta IP (nM), potency (Inflection Point, IP), co-activator recruitment to LXRbeta LBD, in relation to T0901317) amounted to 74 nM; in assay [2] (LXR alpha IP (nM), potency (Inflection Point, IP), co-activator recruitment to LXRalpha LBD, in relation to T0901317), 1090 nM. Also, the Emax in assay [1] (read-out: LXR beta Activity @ max dose (%)) worked out at 76%; in assay [2] (read-out: LXR alpha Activity @ max dose (%)), 19%.
`CNC(=O)c1ccc(N2CCC(CC3CCN(C(=O)[C@](O)(c4ccccc4)C(F)(F)F)CC3)CC2)cc1Cl` [Example 7-126, 2-chloro-N-methyl-4-[4-({1-[(2R)-3,3,3-trifluoro-2-hydroxy-2-phenylpropanoyl]piperidin-4-yl}methyl)piperidin-1-yl]benzamide]: the “LXR beta Activity @ max dose (%)” value in assay [1] (setting [8]) worked out at 91%. Moreover, the EC50 in assay [1] (setting [4]) came to 19 nM; in assay [2] (setting [6]), 455 nM. Moreover, the “LXR alpha Activity @ max dose (%)” value in assay [2] (setting [8]) amounted to 46%.
In the case of `CN(C)C(=O)c1ccc(N2CCC(CC3CCN(S(=O)(=O)c4ccccc4F)CC3)CC2)cc1Cl` [Example 13-8, 2-chloro-4-[4-({1-[(2-fluorophenyl)sulfonyl]-piperidin-4-yl}methyl)-piperidin-1-yl]-N,N-dimethylbenzamide], the EC50 in assay [1] (co-activator recruitment to GST-LXRbeta LBD, TR-FRET, read-out: LXR beta IP (Inflection Point, potency)) came out at 43 nM; in assay [2] (co-activator recruitment to GST-LXRalpha LBD, TR-FRET, read-out: LXR alpha IP (Inflection Point, potency)), 935 nM. Also, the Emax came to 95% in assay [1] (efficacy in relation to reference dual agonist T0901317, read-out: LXR beta Activity @ max dose) and 46% in assay [2] (efficacy in relation to reference dual agonist T0901317, read-out: LXR alpha Activity @ max dose).
